{"source": "patent US12070500B2", "about": "“Use of semaphorin-4D antibodies in combination with an immune modulating therapy to inhibit tumor growth and metastasis” (Vaccinex, Inc., priority 2013, dated 2024)", "key": {"Colon26 tumor cells": {"test_system": "Colon26 tumor cells", "assay": "Colon26 tumor growth, combination with cyclophosphamide (Example 8)", "assay_type": "in vivo, Balb/c mice", "settings": "anti-SEMA4D 50 mg/kg IP weekly; cyclophosphamide 50 mg/kg IP days 12 and 20; endpoint 1000 mm3", "protocol": "Experimental Design. 5×10^5 Colon26 tumor cells were implanted subcutaneously into the flank of female Balb/c mice. […] There were 20 mice per group. Tumors were measured with calipers 3×/week starting 5 days post implant. Animals were sacrificed when tumor volume reached 1000 mm3.\nTumor growth was measured by calipers and measurements were used to calculate tumor volume using the formula (w^2×l)/2, where w=width, smaller measurement, and l=length, in mm, of the tumor.\nRegression is the lack of palpable tumor, defined by a tumor measuring <50 mm3 for at least two consecutive measurements."}, "Colon26": {"test_system": "Colon26", "assay": "Summary of tumor regressions in Colon26 model (Example 13, FIG. 13)", "assay_type": "in vivo, mice", "settings": "summary of experiments (FIG. 13)", "description": "Experimental Design. […] The experiment design of the respective experiments is summarized in the above Examples."}}, "data": [{"smiles": "O=P1(N(CCCl)CCCl)NCCCO1", "note": "(centres unmarked) [cyclophosphamide]", "values": [{"measurement": "Tumor Growth Delay (TGD)", "setting": "Colon26 tumor cells", "result": 96, "unit": "%"}, {"measurement": "tumor regression", "setting": "Colon26", "result": 10, "unit": "%"}]}]}
